Drawing on ChEMBL document CHEMBL1201862, “PubChem BioAssay data set” (2004), this text covers AC50, EC50 and IC50 for 2 compounds.

The target of one experiment is CAAX prenyl protease 1 (Saccharomyces cerevisiae S288c, UniProt P47154). Briefly: Ste24 protease inhibitors, dose response, biochemical, S. cerevisiae, plate reader, cherry-pick (AID 488815).
For a further experiment, the target named is CAAX prenyl protease 2 (Saccharomyces cerevisiae S288c, UniProt Q03530). In kind it is biochemical.
The next experiment concerns the target Trypsin (Sus scrofa, UniProt P00761). Briefly: porcine trypsin inhibitors, dose response, selectivity assay for Rce1 protease inhibitor project, biochemical, quenched peptide fluorescence, cherry-pick (AID 488789).
Experiment [1] deals with T1, Kappa-type opioid receptor (Homo sapiens, UniProt P41145). Briefly: SAR analysis of small molecule agonists of the kappa opioid receptor via a luminescent beta-arrestin assay. [Related pubchem assays (depositor defined):AID1777, AID1786, AID1966, AID2133, AID2136, AID2348, AID2352, AID2357, AID2359, AID2370, AID2420, AID2478, AID2491, AID2492, AID2493, AID2497, AID2498, AID2500, AID449737, AID488822, AID488842]. In kind it is functional.

For experiment [2], the target named is T2, Delta-type opioid receptor (Homo sapiens, UniProt P41143). Briefly: DOR antagonists, SAR follow-up, image-based (AID 2357). In kind it is functional.
The target of experiment [3] is T2, Delta-type opioid receptor. Briefly: DOR agonists, SAR follow-up, image-based (AID 2370). In kind it is functional.
Experiment [4] deals with T1, Kappa-type opioid receptor. In kind it is functional.
Experiment [5] deals with T1, Kappa-type opioid receptor. In kind it is functional. The source holds these as a separate data set.
For experiment [6], the target named is T2, Delta-type opioid receptor. Briefly: HTS Image-Based Screen for Agonists of the DOR Receptor. [Related pubchem assays (depositor defined):AID1777, AID1786, AID2133]. It is filed as functional.
In experiment [7] the target is T3, Mu-type opioid receptor (Homo sapiens, UniProt P35372). Briefly: HTS Image-Based Screen for Agonists of the MOR Receptor. [Related pubchem assays (depositor defined):AID1777, AID1785, AID1786, AID2133]. It is filed as functional.
Experiment [8] concerns the target T1, Kappa-type opioid receptor. Briefly: SAR analysis of small molecule agonists of the kappa opioid receptor via a luminescent beta-arrestin assay - Set 3. [Related pubchem assays (depositor defined):AID1777, AID1785, AID1786, AID1966, AID2133, AID2136, AID2284, AID2500]. In kind it is functional.
For experiment [9], the target named is T3, Mu-type opioid receptor. Briefly: MOR antagonists, SAR follow-up, image-based (AID 2420).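 Also: compounds added before stimulation of receptor with agonist DAMGO.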 It is filed as functional.
The target in experiment [10] is T2, Delta-type opioid receptor. Briefly: HTS Image-Based Screen for Antagonists of the DOR Receptor. [Related pubchem assays (depositor defined):AID1777, AID1785, AID1786, AID2133]. It is filed as functional.
The target of experiment [11] is T3, Mu-type opioid receptor. Briefly: MOR agonists by imaging, SAR follow-up, image-based (AID 2352). It is filed as functional.
The target in experiment [12] is T1, Kappa-type opioid receptor. Briefly: KOR antagonists by imaging, SAR follow-up, image-based (AID 2348). It is filed as functional.

Active and inactive are the calls of the source.

T2 sequence (P41143 whole entry): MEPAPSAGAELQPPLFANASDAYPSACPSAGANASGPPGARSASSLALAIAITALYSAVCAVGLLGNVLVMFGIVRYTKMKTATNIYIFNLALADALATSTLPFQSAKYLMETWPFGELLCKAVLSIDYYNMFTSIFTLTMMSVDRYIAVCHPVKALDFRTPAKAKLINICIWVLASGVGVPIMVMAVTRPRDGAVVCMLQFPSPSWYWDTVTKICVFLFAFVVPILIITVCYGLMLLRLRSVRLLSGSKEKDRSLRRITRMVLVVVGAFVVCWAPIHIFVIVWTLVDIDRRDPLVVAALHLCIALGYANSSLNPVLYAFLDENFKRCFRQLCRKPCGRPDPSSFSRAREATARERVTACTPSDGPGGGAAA
T1 sequence (P41145 whole entry): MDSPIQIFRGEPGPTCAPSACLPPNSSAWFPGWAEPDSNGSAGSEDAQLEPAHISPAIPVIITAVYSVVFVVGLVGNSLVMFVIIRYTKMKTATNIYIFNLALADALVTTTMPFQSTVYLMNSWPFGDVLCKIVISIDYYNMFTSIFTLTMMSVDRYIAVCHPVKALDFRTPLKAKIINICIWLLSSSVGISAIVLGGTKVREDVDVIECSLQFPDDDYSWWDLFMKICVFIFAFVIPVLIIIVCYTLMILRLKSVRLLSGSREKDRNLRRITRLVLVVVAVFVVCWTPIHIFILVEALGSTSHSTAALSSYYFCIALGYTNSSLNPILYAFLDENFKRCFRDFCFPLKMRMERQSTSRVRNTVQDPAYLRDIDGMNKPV
T3 sequence (P35372 whole entry): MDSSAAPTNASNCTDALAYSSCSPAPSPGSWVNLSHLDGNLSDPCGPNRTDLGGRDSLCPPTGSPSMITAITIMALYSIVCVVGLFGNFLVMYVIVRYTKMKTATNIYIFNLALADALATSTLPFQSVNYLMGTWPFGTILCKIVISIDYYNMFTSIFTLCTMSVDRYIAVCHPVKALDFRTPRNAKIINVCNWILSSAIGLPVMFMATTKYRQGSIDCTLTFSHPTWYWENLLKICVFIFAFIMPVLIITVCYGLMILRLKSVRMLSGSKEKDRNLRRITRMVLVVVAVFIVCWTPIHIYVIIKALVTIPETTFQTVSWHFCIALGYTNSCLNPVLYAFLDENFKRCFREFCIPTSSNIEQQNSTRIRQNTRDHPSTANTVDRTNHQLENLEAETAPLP
CAAX prenyl protease 2, sequence (Q03530 whole entry): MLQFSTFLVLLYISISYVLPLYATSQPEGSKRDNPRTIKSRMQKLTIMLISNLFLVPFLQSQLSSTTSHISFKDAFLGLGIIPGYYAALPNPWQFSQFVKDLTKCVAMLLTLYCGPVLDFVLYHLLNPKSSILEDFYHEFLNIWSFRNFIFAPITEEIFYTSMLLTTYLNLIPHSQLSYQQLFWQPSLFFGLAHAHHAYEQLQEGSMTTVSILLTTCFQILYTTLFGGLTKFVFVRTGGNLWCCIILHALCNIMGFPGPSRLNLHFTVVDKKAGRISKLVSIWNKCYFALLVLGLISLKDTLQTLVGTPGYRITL
Trypsin, sequence (P00761 whole entry): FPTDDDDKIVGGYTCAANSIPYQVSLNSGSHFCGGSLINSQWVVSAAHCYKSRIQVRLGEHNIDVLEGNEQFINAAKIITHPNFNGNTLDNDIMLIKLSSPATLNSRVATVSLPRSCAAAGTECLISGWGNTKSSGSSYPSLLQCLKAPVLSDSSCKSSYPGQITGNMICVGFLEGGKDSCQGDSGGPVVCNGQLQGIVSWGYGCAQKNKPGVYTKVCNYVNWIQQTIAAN
CAAX prenyl protease 1, sequence (P47154 whole entry): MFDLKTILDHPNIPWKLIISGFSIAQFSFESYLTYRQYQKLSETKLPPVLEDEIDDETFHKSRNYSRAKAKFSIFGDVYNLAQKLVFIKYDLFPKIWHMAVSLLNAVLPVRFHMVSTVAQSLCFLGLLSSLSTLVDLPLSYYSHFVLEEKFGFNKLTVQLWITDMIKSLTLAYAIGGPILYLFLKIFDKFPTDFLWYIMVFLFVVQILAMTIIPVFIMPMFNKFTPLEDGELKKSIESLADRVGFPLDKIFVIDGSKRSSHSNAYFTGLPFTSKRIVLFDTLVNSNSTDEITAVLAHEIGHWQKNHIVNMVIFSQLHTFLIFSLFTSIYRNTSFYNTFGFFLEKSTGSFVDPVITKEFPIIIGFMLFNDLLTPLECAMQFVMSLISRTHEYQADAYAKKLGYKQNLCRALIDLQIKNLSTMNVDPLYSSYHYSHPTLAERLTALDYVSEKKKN

Consider `CCCCN1C(=O)/C(=C/Nc2cccnc2Cl)C(=O)N(CCCCl)C1=O`, for which the values for the AC50 at CAAX prenyl protease 1, on CAAX prenyl protease 2 and at Trypsin were 7.88 µM (active), 40.4 µM (active) and 47.1 µM (active), respectively.
As for `CCCCN(Cc1cc2cc(C)ccc2[nH]c1=O)C(=O)c1ccccn1`, the EC50 (commonly the concentration that produces a half-maximal response) in experiment [1] is 7.69 µM (active); in experiment [3], > 32 µM (inactive); in experiment [4], 4.84 µM; in experiment [5], 4.95 µM; in experiment [6], > 32 µM (inactive); at Mu-type opioid receptor [7], > 32 µM (inactive). Further, the EC50 is 8.38 µM (active) in experiment [8] and > 32 µM (inactive) at Mu-type opioid receptor [11]. Also, the IC50 (in [2]; on Mu-type opioid receptor [9]; in experiment [10]; in experiment [12]) was > 32 µM (inactive) throughout.
